From US20250213608A1, “VANADYL SULFATE COMPOSITIONS AND METHODS OF USE THEREFOR FOR THE TREATEMENT AND PREVENTION OF AGING-RELATED DISEASES AND CANCER” (The University of Chicago, priority 2022, published 2025)
“Also recorded” adds a separate entry of the source.

Tests used:
[1] = tested on: human fibroblast BJ cells with therapy-induced senescence by doxorubicin; experiment: Screen for senolytic effect in cells with therapy-induced senescence; assay type: cell-based; settings: senescent BJ cells versus control uninduced cells; FIG. 1A, 2A
Procedure: (§1) Experiments were conducted during development of embodiments herein to screen for diet-derived dietary substances, natural products, blood chemicals, etc. that provide senolytic activity with reduced “off-target” toxic side effects. A library of diet-derived blood chemicals was screened to identify compounds that selectively induce cell death in human fibroblast BJ cells with therapy-induced senescence by doxorubicin (FIG. 1A). The top candidates identified were tested in a second screen (FIG. 1B) using human fibroblast HCA2 cells with senescence induced by Nutlin3a (p53 activator), RO3306 (CDK1 inhibitor), and BI2436 (PLK1 inhibitor).
(§2) Experiments were conducted during development of embodiments herein to screen for natural products that provide senolytic activity. A library of diet-derived blood chemicals was screened to identify compounds that selectively induce cell death in human fibroblast BJ cells with therapy-induced senescence by doxorubicin (FIG. 1A). The top candidates identified were tested in a second screen (FIG. 1B) using human fibroblast HCA2 cells with senescence induced by Nutlin3a (p53 activator), RO3306 (CDK1 inhibitor), and BI2436 (PLK1 inhibitor). […] Temporal mechanistic studies of VS were also conducted (FIG. 8A-B).

[2] = tested on: human fibroblast HCA2 cells with senescence induced by Nutlin3a, RO3306 and BI2436; experiment: Second screen for senolytic effect in induced-senescent HCA2 cells; assay type: cell-based; settings: senescent HCA2 cells versus control uninduced cells; FIG. 1B, 2B
Procedure: as §1, §2

aged mice = experiment: Aging-related phenotypes in aged mice after oral gavage; assay type: in vivo
Excerpt: In some embodiments, provided herein is the administration of VS as a pharmaceutical or nutraceutical composition to treat or prevent pathogenic senescence-related diseases (e.g., liver and lung fibrosis, atherosclerosis, diabetes, osteoarthritis, etc.). In some embodiments, provided herein is the administration of VS as a pharmaceutical or nutraceutical composition to treat or prevent various diverse human cancers, alone or in combination with anti-cancer therapies that result in therapy-induced senescence.

[3] = tested on: bleomycin-induced lung fibrosis; experiment: Bleomycin-induced lung fibrosis; assay type: in vivo; settings: FIG. 4A-D
[4] = tested on: CCl4-induced liver fibrosis; experiment: CCl4-induced liver fibrosis; assay type: in vivo; settings: FIG. 5A-D
A549 xenograft = A549 xenograft model combined with senescence induction; assay type: in vivo; settings: FIG. 6A-B
senescent cells = experiment: Rescue of VS-induced cell death by NAC; assay type: cell-based; settings: FIG. 7A-C
Procedure: as §2

[5] = tested on: apolipoprotein E-deficient (ApoE-/-) mice; experiment: Atherosclerosis model in ApoE-/- mice; assay type: in vivo
Excerpt: Atherosclerosis-prone apolipoprotein E-deficient (ApoE^−/−) mice were used that display poor lipoprotein clearance with subsequent accumulation of cholesterol ester-enriched particles in the blood, which promote the development of atherosclerotic plaques. Compared to wild type control mice with no disease (WT-ND), the ApoE−/− mice developed atherosclerosis-like disease with accumulation of cholesterol that was stained with Sudan IV showing orange-red color (FIG. 9A, left).

animal models = settings: cited from earlier work
type 2 diabetes = settings: cited from earlier work
[6] = aged mice, oral gavage, kidney tissues

O=S(=O)([O-])[O-].[O]=[V+2] [VS, vanadyl sulfate]
cell death in senescent BJ cells [1]: selectively triggers cell death; also recorded: selectively induced cell death | cell death in senescent HCA2 cells [2]: selectively triggers cell death; also recorded: selectively induced cell death | aging / senescent cells in vivo (aged mice; FIG. 3A-F): ameliorates aging by eliminating senescent cells | aging-related phenotypes (aged mice; aged mice, oral gavage): improved | serum urea levels (aged mice; aged mice, oral gavage): reducing | gene expression level of CDK inhibitor p16INK4a (aged mice; [6]): reducing | gene expression level of inflammatory cytokine IL-6 (aged mice; [6]): reducing | therapeutic efficacy in bleomycin-induced lung fibrosis [3]: shows therapeutic efficacy | therapeutic efficacy in CCl4-induced liver fibrosis [4]: shows therapeutic efficacy | tumor growth (A549 xenograft): suppresses tumor growth | rescue of VS-induced cell death by NAC (senescent cells): can be rescued by NAC | accumulation of cholesterol in atherosclerotic plaques ([5]; ApoE-/- mice, Sudan IV staining, quantitation, FIG. 9A): reduced | overall total cholesterol level ([5]; ApoE-/- mice, FIG. 9B): reduced | therapeutic efficacy in atherosclerosis model ([5]; FIG. 9A-B): provides therapeutic efficacy | hyperglycemia (animal models): reduce | insulin resistance (animal models): reduce | hepatic and muscle insulin sensitivity (type 2 diabetes): improve
